The values that follow come from patent US10213407B2, “Compounds and methods for inhibiting production of trimethylamine” (The Procter & Gamble Company, priority 2015, dated 2019).

The assay relates to Proteus mirabilis 29906 (Pm) lysate. Put plainly: Inhibition of formation of TMA from choline in Proteus mirabilis lysate (d9-choline to d9-TMA, LC-MS/MS). The following applies: conversion of choline to TMA; Pm lysate 1.5 mg/mL protein, 50 μM d9-choline chloride, 37° C., two hours; read-out: TMA Inhibition (IC50, mol/L). The format is biochemical. Here is the method: EXAMPLE 2 Assay for identifying and characterizing compounds that inhibit the formation of TMA from choline.
This example provides an exemplary assay for identifying and characterizing compounds that inhibit the formation of TMA from choline.
Proteus mirabilis 29906 (Pm) strain was grown aerobically overnight in 500 ml of Nutrient Broth media (3 g/L beef extract, 5 g/L Peptone; Difco #234000) at 37° C. with 250 rpm shaking. The biomass was pelleted by centrifugation at 6000×g for 12 minutes at 4° C. The cell pellet was suspended in 240 mL of ice-cold 1× Phosphate Buffered Saline (Ca^2+ and Mg^2+ free). Ninety micrograms of Lysozyme (Sigma #L6876 Lot #SLBG8654V; Sigma-Aldrich Corp., St. Louis, Mo.) was added and incubated with 320 rpm shaking for 30 minutes at 4° C. Lysis was achieved via French press with a 4° C. prechilled 1″ diameter chamber at 1000 psi (high ratio; internal PSI equivalent ˜16000). The lysate was centrifuged at 6,000×g for 12 minutes at 4° C. to pellet extra debris. A protein concentration of the centrifuged lysate supernatant was determined by a BCA Protein Assay Kit (Pierce #23225; Thermo Fisher Scientific Co., Waltham, Mass.) and protein concentration adjusted to 3 mg/ml with 1× Dulbecco's phosphate buffered saline (DPBS). The centrifuged supernatant lysate was aliquoted into 20 mL volumes and stored frozen at −80° C.
Proteus mirabilis 29906 (Pm) lysate was diluted to 1.5 mg/mL protein with 1×DPBS. Choline chloride (CC) (1M stock) was added to reach a final concentration of 2.5 mM choline chloride. The mixture was mixed using a vortex mixer for approximately 15 seconds and incubated at 37° C. for 22 hours. After incubation, 150 μL of CC-treated Pm lysate was dispensed into a deep-well plate (polypropylene, 2 mL volume, Corning Axygen catalogue #P-DW-20-C). Candidate IC50 compounds from TABLE 1 and vehicle control (respective vehicle control of DMSO or water), or control compounds (IC50 control, 8-Quinolinol hemisulfate salt (Sigma Catalog #55100)) were added at a 1:100 dilution (e.g., 1.5 μL per well). The plates were agitated on a plate shaker for 1 minute. d9-choline chloride (1.5 μL of 5 mM) was added to all wells to reach a final d9-choline chloride concentration of 50 μM.
The plates were again agitated on a plate shaker for 1 minute and incubated at 37° C. for two hours. After incubation, 1.5 μL of formic acid was added to each well (final concentration=1% formic acid). The plates were agitated on a plate shaker for 1 minute and placed on ice. Cell lysate samples were spiked with stable isotope labeled internal standard (22.5 μL of 6 μg/mL of 13C3-trimethylamine (13C3-TMA) was added to each sample), then d9-trimethylamine (d9-TMA), trimethylamine (TMA) and 13C3-TMA were isolated from the lysate after protein precipitation as described below. Acetonitrile acidified with 0.1% formic acid, 600 μL, was added to each sample which was then centrifuged (2,100 g for 20 minutes) to pellet the protein and other precipitates. The supernatant was removed and analyzed as described below. The TMA, d9-TMA and 13C3-TMA in the isolated supernatant samples were subjected to gradient High Performance Liquid Chromatography (HPLC) analysis on a Waters Atlantis HILIC Silica column, from Waters Corp., Milford, Mass., (2.1×50 mm, 3 μm particles) with an Atlantis Silica HILIC Sentry guard column, from Waters Corp., Milford, Mass., (100 Å, 3 μm, 2.1 mm×10 mm), 10 mM ammonium formate in water with 0.1% formic acid as mobile phase A and 0.1% formic acid in acetonitrile as mobile phase B. Detection and quantitation was achieved by tandem mass spectrometry operating under multiple reaction monitoring (MRM) MS/MS conditions (m/z 60.1→44.1 for TMA, m/z 69.1→49.1 for d9-TMA, m/z 63.0→46.1 for 13C3-TMA). TMA and d9-TMA calibration standards (STD), prepared in 80/20/0.1% acetonitrile/Water/Formic Acid, were used to construct a regression curve by plotting the response (peak area TMA/peak area 13C3-TMA) versus concentration for each standard. […]
Consider `CC[N+](CC)(CCCN=C=S)CCOc1ccccc1` [Compound 10, N-(2-Phenoxyethyl)-3-isothiocyanato-N,N-diethylpropan-1-aminium triflate], for which the IC50 amounted to 29.6 µM.
The value for `C[N+](C)(CCN=C=S)CCOCc1ccccc1` [Compound 11, N-(2-Benzyloxyethyl)-2-isothiocyanato-N,N-dimethylethan-1-aminium triflate] was 16.1 µM.
The same measure for `CC[N+](CC)(CCCN=C=S)CCOCc1ccccc1` [Compound 12, N-(2-Benzyloxyethyl)-3-isothiocyanato-N,N-diethylpropan-1-aminium triflate]: 29.1 µM; for `C[N+](C)(CCN=C=S)CCOc1ccccc1` [Compound 13, N-(2-Phenoxyethyl)-2-isothiocyanato-N,N-dimethylethan-1-aminium triflate]: 1.33 µM; for `C[N+](C)(CCBr)CCN=C=S` [Compound 14, N-(2-Bromoethyl)-2-isothiocyanato-N,N-dimethylethan-1-aminium triflate]: 24.9 µM.
The value for `C[N+](C)(CCN=C=S)CC1CO1` (stereo not drawn) [Compound 15, N-(Oxiranylmethyl)-2-isothiocyanato-N,N-dimethylethan-1-aminium triflate] was 194 µM; that for `CC[N+](CC)(CCCN=C=S)CC1CO1` (stereo not drawn) [Compound 16, N-(Oxiranylmethyl)-3-isothiocyanato-N,N-diethylpropan-1-aminium triflate] was 39.8 µM; that for `COCC[N+](C)(C)CCN=C=S` [Compound 17, N-(2-Methoxyethyl)-2-isothiocyanato-N,N-dimethylethan-1-aminium triflate] was 31.6 µM.
For the compound `CC[N+](CC)(CCCN=C=S)CCOC` [Compound 18, N-(2-Methoxyethyl)-3-isothiocyanato-N,N-diethylpropan-1-aminium triflate], the IC50 was found to be 39.8 µM.
For `CCOCC[N+](C)(C)CCN=C=S` [Compound 19, N-(2-Ethoxyethyl)-2-isothiocyanato-N,N-dimethylethan-1-aminium triflate], the IC50 is 63.1 µM.
The value for `CCOCC[N+](CC)(CC)CCCN=C=S` [Compound 20, N-(2-Ethoxyethyl)-3-isothiocyanato-N,N-diethylpropan-1-aminium triflate] was 19.9 µM; that for `COCCC[N+](C)(C)CCN=C=S` [Compound 21, N-(3-Methoxypropyl)-2-isothiocyanato-N,N-dimethylethan-1-aminium triflate] was 31.6 µM; that for `CC[N+](CC)(CCCN=C=S)CCCOC` [Compound 22] was 31.6 µM.
The same measure for `C[N+](C)(CCCl)CCN=C=S` [Compound 23, N-(2-Chloroethyl)-2-isothiocyanato-N,N-dimethylethan-1-aminium triflate]: 25.1 µM; for `C[N+](C)(CCCCl)CCN=C=S` [Compound 24, N-(3-Chloropropyl)-2-isothiocyanato-N,N-dimethylethan-1-aminium triflate]: 63.1 µM; for `CC[N+](CC)(CCCl)CCCN=C=S` [Compound 25, N-(2-Chloroethyl)-3-isothiocyanato-N,N-diethylpropan-1-aminium triflate]: 19.9 µM.
With `CC[N+](CC)(CCCCl)CCCN=C=S` [Compound 26, N-(3-Chloropropyl)-3-isothiocyanato-N,N-diethylpropan-1-aminium triflate], the IC50 is 50.1 µM.
As to `CC[N+](CC)(CCF)CCCN=C=S` [Compound 27, N-(2-Fluoroethyl)-3-isothiocyanato-N,N-diethylpropan-1-aminium triflate], the IC50 was 31.6 µM.
The same measure for `S=C=NCC[n+]1ccccc1` [Compound 28, 1-(2-Isothiocyanatoethyl)pyridin-1-ium bromide]: 31.6 µM; for `Oc1ccc[n+](CCN=C=S)c1` [Compound 29, 1-(2-Isothiocyanatoethyl)-3-hydroxypyridinium bromide]: 1260 µM.
The value for `OCc1cccc[n+]1CCN=C=S` [Compound 30, 1-(2-Isothiocyanatoethyl)-(2-hydroxymethyl)pyridinium triflate] was 25.1 µM; that for `OCc1cccc[n+]1CCCN=C=S` [Compound 31, 2-(hydroxymethyl)-1-(3-isothiocyanatopropyl)pyridin-1-ium trifluoromethanesulfonate] was 251 µM.
Take `Oc1ccc[n+](CCCN=C=S)c1` [Compound 32, 3-hydroxy-1-(3-isothiocyanatopropyl)pyridin-1-ium trifluoromethanesulfonate]: the IC50 is 1990 µM.
The value for `OCC[N+]1(CCN=C=S)CCCCC1` [Compound 33, 1-(2-hydroxyethyl)-1-(2-isothiocyanatoethyl)piperidin-1-ium trifluoromethanesulfonate] was 200 µM; that for `C[N+]1(CCN=C=S)CCCCC1CO` (stereo not drawn) [Compound 34, 2-(hydroxymethyl)-1-(2-isothiocyanatoethyl)-1-methylpiperidin-1-ium trifluoromethanesulfonate] was 316 µM; that for `OCC[N+]1(CCCN=C=S)CCCCC1` [Compound 35, 1-(2-hydroxyethyl)-1-(3-isothiocyanatopropyl)piperidin-1-ium trifluoromethanesulfonate] was 1260 µM.
The value for `C[N+](C)(CCO)CCCN=C=S` [Compound 36, N-(2-hydroxyethyl)-3-isothiocyanato-N,N-dimethylpropan-1-aminium trifluoromethanesulfonate] was 100 µM; that for `C#CC[N+](C)(C)CCN=C=S` [Compound 37, N-(2-isothiocyanatoethyl)-N,N-dimethylprop-2-yn-1-aminium bromide] was 1.99 µM.
The same measure for `C=C(C[N+](C)(C)CCN=C=S)C(=O)OC` [Compound 38, N-(2-isothiocyanatoethyl)-2-(methoxycarbonyl)-N,N-dimethylprop-2-en-1-aminium bromide]: 14.1 µM.
As to `C[N+]1(CCN=C=S)CCC(O)CC1` (stereo not drawn) [Compound 39, 4-hydroxy-1-(2-isothiocyanatoethyl)-1-methylpiperidin-1-ium bromide], the IC50 came out at 25.9 µM.
The same measure for `C[N+]1(CCN=C=S)CCOCC1` [Compound 40, 4-Methyl-4-(2-isothiocyanatoethyl)morpholinium trifluoromethanesulfonate]: 286 µM; for `C[N+]1(CCN=C=S)CCCCC1` [Compound 41, 1-Methyl-1-(2-isothiocyanatoethyl)piperidium trifluoromethanesulfonate]: 31.7 µM; for `S=C=NCC[N+]12CCC(CC1)CC2` [Compound 42, 1-(2-Isothiocyanatoethyl)quinuclidinium trifluoromethanesulfonate]: 12.1 µM.
Turning to `C[N+]1(CCCN=C=S)CCOCC1` [Compound 43, 4-Methyl-4-(3-isothiocyanatopropyl)morpholinium trifluoromethanesulfonate], the IC50 was above 1000 µM.
The value for `C[N+]1(CCCN=C=S)CCCCC1` [Compound 44, 1-Methyl-1-(3-isothiocyanatopropyl)piperidinium trifluoromethanesulfonate] was above 1000 µM.
The same measure for `S=C=NCCC[N+]12CCC(CC1)CC2` [Compound 45, 1-(3-Isothiocyanatopropyl)quinuclidinium trifluoromethanesulfonate]: 115 µM.
